Test results published in US20120190752A1, “EXO-S-MECAMYLAMINE METHOD, USE, AND COMPOUND FOR TREATMENT” (Targacept Inc., priority 2009, published 2012).

System: subjects with major depressive disorder (MDD) who were inadequate responders to citalopram
Assay: CGI-I / CGI-GI (Clinical Global Impression-Improvement), Phase 2b add-on trial
Type: in vivo, human
Source text: The Clinical Global Impression—Improvement scale (CGI-I) is a 7 point scale that requires the clinician to assess how much the patient's illness has improved or worsened relative to a baseline state at the beginning of the intervention. The Clinical Global Impression—Efficacy Index is a 4 point×4 point rating scale that assesses the therapeutic effect of the treatment. In more detail, a multi-center double-blind, randomized, placebo-controlled, parallel group, flexible dose titration study of TC-5214 as adjunctive therapy in subjects with major depressive disorder (MDD) who were inadequate responders to citalopram was conducted in centers in the US and India. The study consisted of a screening period, baseline/washout period, open-label phase, double-blind phase, and a follow-up visit. Subject participation in the study could continue for up to 16 weeks of treatment. Following a washout period of up to 28 days for other antidepressants, subjects with MDD and a MADRS total score >/=28 and a Clinical Global Impression-Severity (CGI-S) score >/=4 were enrolled on Day 1 into an open-label citalopram-only phase of the study. This phase lasted 8 weeks, with citalopram (CIT) dose increased from a once-daily dose of 20 mg (Day 1 through Week 4) to 40 mg (Week 4 through Week 8). A total of 579 subjects entered the open-label citalopram phase. At Week 8, subjects who tolerated 40 mg CIT, but whose MADRS score was reduced <50% from baseline and no lower than 17, and CGI-S≧4, were considered inadequate responders. These subjects (n=270) were randomized in a double-blind fashion to receive either placebo or TC-5214-23 as add-on therapy to continued CIT. The double-blind phase of the study also lasted 8 weeks (Week 8 to Week 16). Study drug, TC-5214-23 or placebo, was started at 2 mg daily (1 mg twice per day [BID] dosing), added on to continuing CIT (40 mg PO qd). After 2 weeks of treatment, the dose of TC-5214 could be increased to 4 mg (2 mg BID) or continued unchanged, with up-titration based upon good tolerability and inadequate therapeutic response. After a further 2 weeks, the dose of TC-5214 could be increased again to 8 mg (4 mg BID) if judged appropriate by the investigator, based upon good tolerability and inadequate therapeutic response. At any time during the double-blind phase of the study, placebo or TC-5214-23 could be reduced to the previous dose level following the emergence of unacceptable adverse events (AEs). […] At this follow-up, any signs or symptoms of relapse were evaluated. If a subject was prematurely discontinued from the study between Week 8 and Week 16 for any reason, the investigator was to make every effort to perform all evaluations as per protocol, assuming the subject had reached the end of the double-blind add-on treatment phase. These evaluations were to be made as soon as possible and within 2 weeks of discontinuation. […] There was no meaningful difference in results as a function of age, gender, site, or smoking status. With regard to efficacy endpoints, the following tables present efficacy used in the ITT (Intent-to-Treat) and PP (Per Protocol) populations unless otherwise specific. The primary inference was based upon Week 16 visit using the ITT population. Change from baseline was obtained by subtracting the baseline values from the individual on-treatment values. Change from Week 16 was obtained by subtracting the Week 16 values from the individual follow-up visit (Week 18/19) values. If either the baseline or Week 16 or on-treatment or follow-up value was missing, the change from baseline or Week 16 value was also set to missing. To account for missing data, the last observation carry forward (LOCF) method was used for the ITT and PP populations. Thus, the last available on-therapy observation for a subject, including the observation at premature discontinuation, was used to estimate subsequent missing data points. […]

[1] = ITT Population, Double Blind Week 16 LOCF
[2] = ITT Population, Double Blind Week 18 LOCF (Follow-up)
[3] = PP Population, Double Blind Week 16 LOCF
[4] = PP Population, Double Blind Week 18 LOCF (Follow-up)

Structure (SMILES): CNC1(C)C2CCC(C2)C1(C)C (stereo in doubt) [TC-5214, (S)—N,2,3,3-tetramethylnorbornan-2-amine]
- CGI-I Adjusted Mean [1]: 1.91
- CGI-I Mean Difference between TC-5214 and Placebo [1]: 0.79
- CGI-I Adjusted Mean [2]: 1.90
- CGI-I Mean Difference between TC-5214 and Placebo [2]: 0.71
- CGI-I score compared with placebo (ITT and PP populations, Week 16 and Week 18, result in words): statistically significant decreases (improvements)
- CGI-GI Difference vs Placebo + CIT (ITT, Week 16 LOCF): −0.79
- CGI-GI Adj. Mean (ITT, Week 16 LOCF, add-on to citalopram): 1.91
- CGI-I Adjusted Mean [3]: 1.84
- CGI-I Mean Difference between TC-5214 and Placebo [3]: 0.78
- CGI-I Adjusted Mean [4]: 1.83
- CGI-I Mean Difference between TC-5214 and Placebo [4]: 0.71
